# According to patent publication US6723527B2, “Methods for determining toxicity reversing agents” (Board of Regents, The University of Texas System, priority 2001, dated 2004):
# Read-outs that look alike come from different tables or passages of the source.
# What was measured:
# Format in all cases: cell-based
# [1] = tested on: human lymphocytes; assay: lymphocyte response to varied culture medium components
# Experimental: Culture medium suitable for the growth of human lymphocytes is prepared as follows: To 50 ml of medium buffer 72 mg glucose is added, 1 ml amino acid supplement, 1 ml of a 16.5 mg/ml pyruvate: 2.64 mg/ml cysteine solution, 1 ml of a 1.4 mg/ml choline chloride; 1.8 mg/ml inositol solution, 1 ml of the above indicated vitamin supplement, and 1 ml of a 135 μg/ml adenine solution. The pH is adjusted with dilute NaOH to 7.6. Supplements of the following are then added: 1 ml of the antibiotic supplement, 0.5 ml of a 22.2 mg/ml calcium chloride solution, 0.5 ml of a 24 mg/ml magnesium sulfate solution, 1 ml of a solution of 0.278 mg/ml ferrous sulfate in 0.149 mg/ml EDTA. Deionized water is added to a final volume of 100 ml and the medium is filtered through Nalgene membrane filter units for sterilization. After filtration 0.2 ml of a 1 mg/ml sterile solution of phytohemagglutinin (PHA) is added to each 100 ml of media. PHA is obtained from Sigma Chemical Co. in 5 mg quantities and is diluted with sterile, deionized water.
# Accordingly, a culture medium suitable for determining the growth or other responses of lymphocytes comprises a serum-free, buffered (pH 7.6) solution in deionized water comprises per liter of solution the following components as described in Table 1:
# The components of the culture medium of Table 1 can be varied. In general, effective amounts of the components are used and can vary widely for the various growth assays of the invention and for individual patients. An effective amount of a component, as used herein, is an amount which will obtain a desired response from the patient. […] For most patients and assays the following ranges of components are satisfactory. The precise amounts of the components to provide an effective response can be determined by simple experimentation with the culture medium.
# The following is an example of a lymphocyte assay: Previously sterilized 96 well microtiter plates (Corning) are used in this assay procedure. 0.2 milliliters of the culture medium is added to each well. Where necessary, variable supplements up to 10 μl may be added to each tube, or a smaller volume of an appropriately higher concentration of the medium can be added to the tubes and supplements then added to make a final volume of 0.2 ml. The assay is then inoculated with 10 μl of the diluted lymphocyte suspension (22,000 lymphocytes).
# Incubation. The plates are incubated for 4 days at 37° C. in a 5% carbon dioxide atmosphere saturated with water vapor. […]
# Harvesting. […] The filter papers are dried for 5 minutes in a drying oven at 120° C. and then counted on a Matrix 96 Beta Counter (Packard).
# [2] = tested on: human peripheral blood lymphocytes; assay: lymphocyte growth inhibition assay ([3H]-thymidine incorporation) in chemically defined medium; conditions: for IC50: Homo sapiens, Lymphocyte, read-out: Amount Required to Inhibit Growth by 50%
# Experimental: The medium is also described in the specification above. Various concentrations of amino acids can be used in the medium to determine the effect on growth or growth inhibition.
# Human peripheral blood was collected from a group of patients in the clinic. […] Experiments were conducted in 96 well microtite plates. Triplicate samples were run in all experiments. […] For reversal of toxicity CoQ10 was added at a concentration of 0.5 μg/ml, and the patient's own plasma at a concentration of 0.1%. All chemicals were obtained from Sigma Chemical Corporation. […] Cells were then pulsed with 10 μl [^3H]-thymidine (0.29×10^-6M final concentration; specific activity […]). Twenty-four hours later, cells were harvested using an Inotech Cell Harvester. Radioactive incorporation was measured using a Packard Matrix 96 Beta Counter.
# [3] = tested on: human peripheral blood lymphocytes; assay: reversal of Lipitor (statin) toxicity in the lymphocyte culture assay; conditions: Lipitor present; CoQ10 0.5 μg/ml, patient's own plasma 0.1%; all subjects
# Description: The present invention also provides a composition comprised in the plasma that has the ability to ameliorate the toxicity of metabolic inhibitors such as the statins. […] It is contemplated that the plasma composition may comprise at least one peptide, a polypeptide, a protein or a small molecule which is associated with or bound to at least one peptide, polypeptide, or protein. The plasma composition may also comprise a lipid moiety, and/or a carbohydrate moiety and/or a nucleic acid component. As the plasma composition is heat-labile, it is contemplated to comprise at least one heat-labile peptide, polypeptide, or protein that may additionally be associated with or bound to at least one small molecule which may be a lipid moiety, and/or a carbohydrate moiety and/or a nucleic acid moiety.
# The medium used in this study was the same as described previously (See U.S. Pat. No. 4,499,064, herein expressly incorporated by reference) except that the concentration the amino acids used was increased five fold. The medium is also described in the specification above. […]
# Human peripheral blood was collected from a group of patients in the clinic. Lymphocytes were isolated as described (Shive, 1986), counted in a Coulter Counter, and inoculated into the medium at a concentration of 110,000 cells per ml. […] Radioactive incorporation was measured using a Packard Matrix 96 Beta Counter. […]
# [4] = patients' lymphocytes, 4 days incubation then 24 h [3H]-thymidine pulse
# [5] = at concentrations of up to 0.2 mg/ml
smiles,measurement,setting,value
Nc1ncnc2nc[nH]c12 [Adenine],concentration in culture medium that is toxic to lymphocytes,"[1]; medium of Table 1, component varied",135 mg/L
[Al] [Aluminum],Amount Required to Inhibit Growth by 50%,[2]; [4],0.005 mg/mL
Cn1c(=O)c2c(ncn2C)n(C)c1=O [Caffeine],IC50,[2]; [4],77.6 µg/mL
"COC1=C(OC)C(=O)C(C/C=C(\C)CC/C=C(\C)CC/C=C(\C)CC/C=C(\C)CC/C=C(\C)CC/C=C(\C)CC/C=C(\C)CC/C=C(\C)CC/C=C(\C)CCC=C(C)C)=C(C)C1=O [CoQ10, Co enzyme Q10]",reversal of Lipitor toxicity,[3],"offers some protection, but it is not totally effective alone"
CN1C(=O)CN=C(c2ccccc2)c2cc(Cl)ccc21 [Diazepam],IC50,[2],20 µg/mL
CCO [Ethanol],IC50,[2]; [4],10000 µg/mL
O[C@H]1[C@H](O)[C@@H](O)[C@H](O)[C@@H](O)[C@H]1O [Inositol],Emax at 0.018 µg/mL,"[1]; Homo sapiens, Lymphocyte, inositol 0.018 mg/l in medium, read-out: lymphocyte response, % of maximal response",~70%
same,Emax at 0.18 µg/mL,"[1]; Homo sapiens, Lymphocyte, inositol 0.18 mg/l in medium, read-out: lymphocyte response, % of maximal response",90 to 100%
NNC(=O)c1ccncc1 [Isoniazid],IC50,[2]; [4],548 µg/mL
"CC(C)c1c(C(=O)Nc2ccccc2)c(-c2ccccc2)c(-c2ccc(F)cc2)n1CC[C@@H](O)C[C@@H](O)CC(=O)O [Lipitor, Atorvastatin]",IC50,[2]; [4],< 0.1 µg/mL
CN(Cc1cnc2nc(N)nc(N)c2n1)c1ccc(C(=O)N[C@@H](CCC(=O)O)C(=O)O)cc1 [Methothrexate],Amount Required to Inhibit Growth by 50%,[2]; [4],<0.00002 mg/mL
"CC[C@H](C)C(=O)O[C@H]1C[C@@H](C)C=C2C=C[C@H](C)[C@H](CC[C@@H]3C[C@@H](O)CC(=O)O3)[C@H]21 [Mevacor, Lovastatin]",IC50,[2]; [4],< 0.1 µg/mL
N[C@@H](CCC(=O)O)C(=O)[O-].[Na+] [Monosodium Glutamate],IC50,[2],7500 µg/mL
"CC[C@H](C)C(=O)O[C@H]1C[C@H](O)C=C2C=C[C@H](C)[C@H](CC[C@@H](O)C[C@@H](O)CC(=O)O)[C@H]21 [Pravachol, Pravastatin sodium]",IC50,[2]; [4],< 0.1 µg/mL
CC(=O)C(=O)O [Pyruvate],concentration in culture medium that is toxic to lymphocytes,"[1]; human, 4 days, pH 7.6",1650 mg/L
CC1=C(/C=C/C(C)=C/C=C/C(C)=C/CO)C(C)(C)CCC1 [Retanol],IC50,[2]; [4],0.5 µg/mL
O=C(O)c1ccccc1O [Salicylate],Amount Required to Inhibit Growth by 50%,[2]; [4],0.005 mg/mL
Cn1c(=O)c2[nH]cnc2n(C)c1=O [Theophyline],IC50,[2]; [4],30 µg/mL
"CCCC(CCC)C(=O)O [Valproic Acid (Depakote), Valproic Acid]",IC50,"[2]; patients' lymphocytes, 4 days incubation then 24 h [3H]-thymidine pulse, unit printed μg/ml",0.4 to 1.2 µg/mL
"CCC(C)(C)C(=O)O[C@H]1C[C@@H](C)C=C2C=C[C@H](C)[C@H](CC[C@@H]3C[C@@H](O)CC(=O)O3)[C@H]21 [Zocor, Simvastatin]",IC50,[2]; [4],< 0.1 µg/mL
N[C@H]1C(O)O[C@H](CO)[C@@H](O)[C@@H]1O (stereo partly drawn) [glucoseamine],toxicity in lymphocytes,[2]; [5],did not show toxicity
NCC1(CC(=O)O)CCCCC1 [neuronton],toxicity in lymphocytes,[2]; [5],did not show toxicity
CCC1(c2ccccc2)C(=O)NC(=O)NC1=O [phenobarbitol],toxicity in lymphocytes,[2],did not show toxicity
Cc1nnc2n1-c1ccc(Cl)cc1C(c1ccccc1Cl)=NC2 [triazolam],toxicity in lymphocytes,[2],did not show toxicity
